The values below come from patent publication US6558699B2, “High drug load immediate and modified release oral dosage formulations and processes for their manufacture” (SmithKline Beecham Corporation, priority 1997, dated 2003).

Structures are written as SMILES.

Data set [1] is described as follows: Hydrate formation during wet granulation (TGA, DSC, XRD). The class given is physicochemical. To be noted: wet granulation with water. The source says:
FIGS. 1(A), 2(A) and 3(A) show, respectively, the thermogravimetric analysis (TGA), the differential scanning calorimetric (DSC) thermogram and the powder X-ray diffraction (XRD) pattern of the free base of anhydrous (E)-α-[2-n-butyl-1-[(4-carboxyphenyl)methyl]-1H-imidazol-5-yl]methylene-2-thiophenepropionic acid.
FIGS. 1B-D, 2B-D and 3B-D show, respectively, the thermogravimetric analysis (TGA), the differential scanning calorimetric (DSC) thermogram and the powder X-ray diffraction (XRD) patterns for the granulations of the free base of anhydrous (E)-α-[2-n-butyl-1-[(4-carboxyphenyl)methyl]-1H-imidazol-5-yl]methylene-2-thiophenepropionic acid with different binders and binder-diluent combinations.
FIGS. 1B, 2B and 3B show, respectively, the thermogravimetric analysis (TGA), the differential scanning calorimetric (DSC) thermogram and the powder X-ray diffraction (XRD) patterns for the granulations of (E)-α-[2-n-butyl-1-[(4-carboxyphenyl)methyl]-1H-imidazol-5-yl]methylene-2-thiophenepropionic acid with Starch 1551 (96/4 eprosartan free base/Starch 1551). […]

A short description of data set [2]: Human clinical studies (tolerability and pharmacokinetics). The data set is classed as in vivo. As to conditions: for safety and tolerability: human clinical studies, doses up to 800 mg per day.
Data set [3] in a line: Drug release from enteric-coated modified release tablets and drug solubility at the initiation pH. As to conditions: pH >4.0 (PVAP), >5.0 (HPMCP), 5.5 (Eudragit). The source says: Tablets of Formulas 1-4 may be optionally provided with an aqueous film coating. Generally, these tablets are coated first with a polymer solution to form a clear film, and then coated with an aqueous polymer solution/suspension to form an opaque, white or colored film. […] In contrast, tablets of Formulas 5-7 are first coated with an aqueous polymer solution to form a clear film (often called seal coat) and then with an aqueous solution/suspension of an enteric polymer such as Eudragit L30D, hydroxypropyl methycellulose acetate phthalate (HPMCP), cellulose acetate phthalate (CAP) or polyvinyl acetate phthalate (PVAP). The weight gains following seal coat and enteric coat are about 3-6% and 4-12% (most preferably 3-4% and 4-6%) respectively. The modified release tablets thus produced release <20% drug in the stomach following the oral administration and rapidly release the drug at higher pHs, depending on the polymer used (for e.g., at a pH >4.0 for PVAP, >5.0 for HPMCP and 5.5 for Eudragit), even though the drug solubility at these initiation pHs is negligible. The water imbibed into the tablets dissolves arginine creating a high pH environment in which Eprosartan dissolves. This high pH also dissolves the film coating, releasing the drug substance to the environment.

In general, bioavailability refers to dose-corrected exposure relative to a reference, in per cent. As to `CCCCc1ncc(/C=C(\Cc2cccs2)C(=O)O)n1Cc1ccc(C(=O)O)cc1.CS(=O)(=O)O` [(E)-α-[2-n-Butyl-1-[(4-carboxyphenyl)-methyl]-1H-imidazol-5-yl]methylene-2-thiophenepropionic acid monomethanesulfonate], the “hydrate formation during wet granulation” value in data set [1] is given as “forms a dihydrate”. For the same compound, the safety and tolerability result in data set [2] was “safe and well tolerated”. Also, the bioavailability in data set [2] (human, in vivo, oral, read-out: mean absolute bioavailability) is about 13%.
For `CCCCc1ncc(/C=C(\Cc2cccs2)C(=O)O)n1Cc1ccc(C(=O)O)cc1` [Eprosartan, (E)-α-[2-n-Butyl-1-[(4-carboxyphenyl)methyl]-1H-imidazol-5-yl]methylene-2-thiophenepropionic acid], in data set [3], the “drug solubility at the initiation pHs” value is reported as “negligible”. In data set [1], the “hydrate formation during wet granulation” value is “does not form a hydrate”. Also, the safety and tolerability entry in data set [2] was “safe and well tolerated”.
